The results in this text go back to ChEMBL document CHEMBL3045439, “Isoforms of the heteropteran Nezara viridula ecdysone receptor: protein characterisation, RH5992 insecticide binding and homology modelling” (Pest Manag Sci, 2011).

Holding throughout (assay type): protein-complex assay
Assay [1] addresses T1, Ecdysone receptor (Nezara viridula, UniProt E5L6Y0+E5L6Y1).
T1 sequence (E5L6Y1 whole entry): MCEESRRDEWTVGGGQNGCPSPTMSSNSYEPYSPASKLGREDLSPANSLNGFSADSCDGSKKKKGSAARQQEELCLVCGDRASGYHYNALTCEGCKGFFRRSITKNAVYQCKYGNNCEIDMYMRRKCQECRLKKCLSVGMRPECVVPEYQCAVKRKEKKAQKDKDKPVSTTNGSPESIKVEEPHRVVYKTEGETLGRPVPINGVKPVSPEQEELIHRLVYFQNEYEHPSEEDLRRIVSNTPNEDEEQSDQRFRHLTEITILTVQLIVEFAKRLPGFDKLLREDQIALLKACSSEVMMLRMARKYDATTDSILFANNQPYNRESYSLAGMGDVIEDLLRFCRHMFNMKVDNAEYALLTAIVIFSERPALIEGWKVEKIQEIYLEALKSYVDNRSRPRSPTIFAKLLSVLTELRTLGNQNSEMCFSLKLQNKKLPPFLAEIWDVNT
T1 sequence (E5L6Y0 whole entry): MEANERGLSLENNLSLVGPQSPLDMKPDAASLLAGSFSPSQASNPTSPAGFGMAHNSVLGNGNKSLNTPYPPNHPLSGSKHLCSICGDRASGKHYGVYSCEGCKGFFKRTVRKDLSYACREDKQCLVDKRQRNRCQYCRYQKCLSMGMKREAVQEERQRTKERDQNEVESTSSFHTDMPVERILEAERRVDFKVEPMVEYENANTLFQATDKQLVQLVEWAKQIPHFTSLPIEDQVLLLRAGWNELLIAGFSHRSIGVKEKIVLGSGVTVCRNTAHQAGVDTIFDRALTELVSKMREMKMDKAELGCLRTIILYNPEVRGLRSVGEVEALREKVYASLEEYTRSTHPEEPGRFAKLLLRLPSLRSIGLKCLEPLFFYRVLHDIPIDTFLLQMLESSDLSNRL
Briefly: Displacement of [3H]PonA from recombinant Nezara viridula EcR10. In general terms: Loss of bound radioactivity is the signal in a displacement assay; it reports binding, not function.

Assay [2] concerns the target T1, Ecdysone receptor. In words: Displacement of [3H]PonA from recombinant Nezara viridula EcR11.
Assay [3] deals with T2, Ecdysone receptor (Drosophila melanogaster, UniProt P20153+P34021).
T2 sequence (P34021 whole entry): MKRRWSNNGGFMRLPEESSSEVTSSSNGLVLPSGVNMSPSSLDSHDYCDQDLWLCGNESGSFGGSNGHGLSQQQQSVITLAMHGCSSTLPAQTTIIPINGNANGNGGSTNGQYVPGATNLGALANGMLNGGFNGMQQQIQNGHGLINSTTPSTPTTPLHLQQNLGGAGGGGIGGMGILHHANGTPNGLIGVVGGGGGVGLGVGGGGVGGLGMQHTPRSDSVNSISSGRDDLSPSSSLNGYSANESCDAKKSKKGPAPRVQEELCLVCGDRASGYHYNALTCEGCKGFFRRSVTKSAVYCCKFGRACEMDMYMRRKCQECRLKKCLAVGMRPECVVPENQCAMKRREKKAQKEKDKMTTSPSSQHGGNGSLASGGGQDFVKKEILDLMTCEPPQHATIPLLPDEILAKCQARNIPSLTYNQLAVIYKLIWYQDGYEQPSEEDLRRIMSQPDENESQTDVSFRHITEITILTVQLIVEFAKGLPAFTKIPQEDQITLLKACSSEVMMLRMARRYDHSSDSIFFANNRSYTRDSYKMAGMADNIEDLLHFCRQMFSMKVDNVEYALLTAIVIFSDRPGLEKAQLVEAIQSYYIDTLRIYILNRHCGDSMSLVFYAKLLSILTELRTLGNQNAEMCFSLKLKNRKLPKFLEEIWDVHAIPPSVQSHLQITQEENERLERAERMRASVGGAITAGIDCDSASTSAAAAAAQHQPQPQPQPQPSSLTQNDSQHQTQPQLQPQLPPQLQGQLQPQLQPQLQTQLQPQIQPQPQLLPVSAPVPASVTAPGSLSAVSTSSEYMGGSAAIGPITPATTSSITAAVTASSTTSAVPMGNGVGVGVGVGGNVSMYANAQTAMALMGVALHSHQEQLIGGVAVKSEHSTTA
T2 sequence (P20153 whole entry): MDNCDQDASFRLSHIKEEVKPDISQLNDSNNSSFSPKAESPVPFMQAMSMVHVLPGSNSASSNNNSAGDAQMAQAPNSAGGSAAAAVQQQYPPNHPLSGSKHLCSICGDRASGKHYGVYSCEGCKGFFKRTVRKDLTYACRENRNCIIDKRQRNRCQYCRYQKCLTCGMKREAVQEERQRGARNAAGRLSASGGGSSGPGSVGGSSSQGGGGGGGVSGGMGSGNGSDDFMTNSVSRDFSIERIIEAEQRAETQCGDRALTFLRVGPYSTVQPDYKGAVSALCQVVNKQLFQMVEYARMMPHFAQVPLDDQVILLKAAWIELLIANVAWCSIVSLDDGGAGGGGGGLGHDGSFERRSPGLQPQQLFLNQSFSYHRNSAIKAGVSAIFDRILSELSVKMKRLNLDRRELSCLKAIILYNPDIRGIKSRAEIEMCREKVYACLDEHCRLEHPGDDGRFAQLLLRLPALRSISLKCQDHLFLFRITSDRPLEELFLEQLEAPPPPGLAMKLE
Briefly: Binding affinity to Drosophila melanogaster EcR.

Assay [4] concerns the target T3, Ecdysone receptor (Spodoptera frugiperda, UniProt Q8MWR1+Q8MWR2).
T3 sequence (Q8MWR2 whole entry): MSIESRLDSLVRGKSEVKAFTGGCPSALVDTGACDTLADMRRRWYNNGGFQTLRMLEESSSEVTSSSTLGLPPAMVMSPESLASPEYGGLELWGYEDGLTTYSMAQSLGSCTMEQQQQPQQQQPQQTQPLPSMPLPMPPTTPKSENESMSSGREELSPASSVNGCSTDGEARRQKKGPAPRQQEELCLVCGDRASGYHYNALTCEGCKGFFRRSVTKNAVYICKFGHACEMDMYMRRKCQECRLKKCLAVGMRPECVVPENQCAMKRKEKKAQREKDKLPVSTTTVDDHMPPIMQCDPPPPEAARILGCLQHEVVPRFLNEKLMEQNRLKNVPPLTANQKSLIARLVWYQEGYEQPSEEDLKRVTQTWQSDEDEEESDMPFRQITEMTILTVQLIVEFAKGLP
T3 sequence (Q8MWR1 whole entry): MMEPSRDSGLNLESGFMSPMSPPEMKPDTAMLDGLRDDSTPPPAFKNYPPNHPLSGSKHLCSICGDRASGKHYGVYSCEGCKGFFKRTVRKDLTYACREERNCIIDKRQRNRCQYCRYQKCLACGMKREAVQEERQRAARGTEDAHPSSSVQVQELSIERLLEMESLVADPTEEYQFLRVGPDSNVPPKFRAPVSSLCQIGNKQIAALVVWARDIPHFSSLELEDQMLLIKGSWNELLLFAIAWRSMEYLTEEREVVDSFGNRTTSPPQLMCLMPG
In words: Binding affinity to Spodoptera frugiperda (fall armyworm) EcR.

Assay [5] concerns the target T4, Ecdysone receptor (Leptinotarsa decemlineata, UniProt Q4W6C8+Q4W6D0).
T4 sequence (Q4W6D0 whole entry): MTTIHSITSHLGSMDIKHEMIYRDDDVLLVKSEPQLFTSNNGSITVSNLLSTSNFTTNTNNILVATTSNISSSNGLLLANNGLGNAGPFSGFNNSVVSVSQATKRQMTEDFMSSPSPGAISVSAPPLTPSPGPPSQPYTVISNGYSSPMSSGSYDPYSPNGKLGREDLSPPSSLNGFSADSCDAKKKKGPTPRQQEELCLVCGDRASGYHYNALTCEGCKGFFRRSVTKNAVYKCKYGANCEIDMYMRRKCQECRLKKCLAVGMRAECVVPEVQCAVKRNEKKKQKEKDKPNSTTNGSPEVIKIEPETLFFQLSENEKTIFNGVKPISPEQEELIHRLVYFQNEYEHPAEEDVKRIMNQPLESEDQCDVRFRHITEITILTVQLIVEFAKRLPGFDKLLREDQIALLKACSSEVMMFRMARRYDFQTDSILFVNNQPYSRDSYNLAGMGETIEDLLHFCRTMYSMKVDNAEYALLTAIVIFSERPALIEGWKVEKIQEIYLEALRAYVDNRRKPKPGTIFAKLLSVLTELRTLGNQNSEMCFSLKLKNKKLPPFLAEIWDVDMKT
T4 sequence (Q4W6C8 whole entry): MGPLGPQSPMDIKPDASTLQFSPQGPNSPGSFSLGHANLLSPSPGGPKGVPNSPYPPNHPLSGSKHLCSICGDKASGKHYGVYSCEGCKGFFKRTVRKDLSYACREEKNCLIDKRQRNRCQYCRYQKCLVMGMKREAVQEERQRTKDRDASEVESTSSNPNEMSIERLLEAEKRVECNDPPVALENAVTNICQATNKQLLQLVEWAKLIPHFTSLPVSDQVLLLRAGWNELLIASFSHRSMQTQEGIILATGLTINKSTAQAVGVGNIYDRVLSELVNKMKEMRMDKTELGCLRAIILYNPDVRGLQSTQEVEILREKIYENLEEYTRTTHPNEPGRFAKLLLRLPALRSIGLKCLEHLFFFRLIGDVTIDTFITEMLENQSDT
In words: Binding affinity to Leptinotarsa decemlineata EcR.

Assay [6] has as its target T1, Ecdysone receptor. In words: Binding affinity to Nezara viridula EcR.

One may read the IC50 as the concentration needed to halve the response being measured. Broadly, the Ki is a dissociation constant, usually derived from enzyme kinetics or from competition with a known ligand. As for `C[C@H]([C@H](O)CCC(C)(C)O)[C@H]1CC[C@@]2(O)C3=CC(=O)[C@@H]4C[C@@H](O)[C@@H](O)C[C@]4(C)[C@H]3CC[C@]12C` [ECDYSONE], the IC50 at Ecdysone receptor [1] and on Ecdysone receptor [2] was 60 µM each time. For the same compound, the Ki on Ecdysone receptor [1] was found to be 50.4 µM; at Ecdysone receptor [2], 51.1 µM.
Regarding `CC(CO)CC[C@@H](O)[C@](C)(O)[C@H]1CC[C@@]2(O)C3=CC(=O)[C@@H]4C[C@@H](O)[C@@H](O)C[C@]4(C)[C@H]3CC[C@]12C` (stereo not given in full) [INOKOSTERONE], at Ecdysone receptor [1], the IC50 worked out at 8 µM and the Ki stood at 6.7 µM. On Ecdysone receptor [2], the IC50 is 7 µM and the Ki was found to be 6 µM.
`C[C@H](C[C@@H](O)[C@](C)(O)[C@H]1CC[C@@]2(O)C3=CC(=O)[C@@H]4C[C@@H](O)[C@@H](O)C[C@]4(C)[C@H]3CC[C@]12C)C(C)(C)O` [MAKISTERONE A]: the IC50 was 1380 nM on Ecdysone receptor [3], 389 nM on Ecdysone receptor [4], 1740 nM at Ecdysone receptor [5] and 1380 nM at Ecdysone receptor [6].
`CC(C)CC[C@@H](O)[C@](C)(O)[C@H]1CC[C@@]2(O)C3=CC(=O)[C@]4(O)C[C@@H](O)[C@@H](O)C[C@]4(C)[C@H]3[C@H](O)C[C@]12C` [MURISTERONE A]: at Ecdysone receptor [1], the IC50 worked out at 0.13 µM and the Ki came out at 0.1 µM. On Ecdysone receptor [2], the IC50 is 0.15 µM and the Ki came out at 0.1 µM.
Take `CC(C)CC[C@@H](O)[C@](C)(O)[C@H]1CC[C@@]2(O)C3=CC(=O)[C@@H]4C[C@@H](O)[C@@H](O)C[C@]4(C)[C@H]3CC[C@]12C` [PONASTERONE A]: the IC50 on Ecdysone receptor [1] was 0.28 µM; on Ecdysone receptor [2], 0.25 µM. Moreover, the Ki at Ecdysone receptor [1] and at Ecdysone receptor [2] was 0.2 µM in each case.
